According to DBAASP:
Converted amounts (≈) assume the structure as drawn. “And” between values parts separate entries of the source, which are not always exact repeats. Identical values can stand only once.

Key:
Experiment in all cases: ≥ marks a high value that may be exact or a test limit, other limits are often not marked, values filed in µg/mL are converted to µM
[1] = test system: Bacillus subtilis KCTC 3068
[2] = test system: Escherichia coli KCTC 1682
[3] = test system: Pseudomonas aeruginosa KCTC 1637
[4] = test system: Salmonella typhimurium KCTC 1926
[5] = test system: Staphylococcus aureus KCTC 1621
[6] = test system: Staphylococcus epidermidis KCTC 1917
Acinetobacter baumannii = test system: Acinetobacter baumannii
[7] = test system: Escherichia coli ATCC 25922
[8] = test system: Klebsiella pneumoniae ATCC 13883
Klebsiella pneumoniae = test system: Klebsiella pneumoniae
[9] = test system: Salmonella enterica subsp. enterica serovar Typhimurium ATCC 14028
[10] = test system: Staphylococcus aureus ATCC 25923
[11] = test system: Klebsiella pneumoniae ATCC 700603
[12] = test system: Pseudomonas aeruginosa ATCC 9027
[13] = test system: Bacillus subtilis ATCC 6633
[14] = test system: Pseudomonas aeruginosa ATCC 27853

| MIC [1] [µM] | MIC [2] [µM] | MIC [3] [µM] | MIC [4] [µM] | MIC [5] [µM] | MIC [6] [µM] | MIC (Acinetobacter baumannii) [µM] | MIC [7] | MIC [10] [µM] | SMILES | further results |
| --- | --- | --- | --- | --- | --- | --- | --- | --- | --- | --- |
| 2 (≈ 4.77 µg/mL) | 8 (≈ 19.1 µg/mL) | 8 (≈ 19.1 µg/mL) | 8 (≈ 19.1 µg/mL) | 4 (≈ 9.54 µg/mL) | 2 (≈ 4.77 µg/mL) | – | – | – | CC[C@H](C)[C@H](N)C(=O)NCC(=O)N[C@@H](CCCCN)C(=O)N[C@@H](CCCCN)C(=O)N[C@@H](Cc1ccccc1)C(=O)N[C@@H](CCCCN)C(=O)N[C@@H](CCCN=C(N)N)C(=O)N[C@H](C(=O)N[C@H](C(=O)N[C@@H](CCC(N)=O)C(=O)N[C@@H](CCCN=C(N)N)C(=O)N[C@H](C(=O)N[C@@H](CCCCN)C(=O)N[C@@H](CCCCN)C(=O)N[C@@H](Cc1ccccc1)C(=O)N[C@@H](CC(C)C)C(=O)N[C@@H](CCCN=C(N)N)C(=O)N[C@@H](CC(N)=O)C(=O)N[C@@H](CC(C)C)C(=O)O)[C@@H](C)CC)C(C)C)[C@@H](C)CC [IGKKFKRIVQRIKKFLRNL] | – |
| 4 (≈ 9.48 µg/mL) | 8 (≈ 19 µg/mL) | 8 (≈ 19 µg/mL) | 4 (≈ 9.48 µg/mL) | 8 (≈ 19 µg/mL) | 4 (≈ 9.48 µg/mL) | – | – | – | CC[C@H](C)[C@H](N)C(=O)NCC(=O)N[C@@H](CCCCN)C(=O)N[C@@H](CC(C)C)C(=O)N[C@@H](Cc1ccccc1)C(=O)N[C@@H](CCCCN)C(=O)N[C@@H](CCCN=C(N)N)C(=O)N[C@H](C(=O)N[C@H](C(=O)N[C@@H](CCC(N)=O)C(=O)N[C@@H](CCCN=C(N)N)C(=O)N[C@H](C(=O)N[C@@H](CCCCN)C(=O)N[C@@H](CCCCN)C(=O)N[C@@H](Cc1ccccc1)C(=O)N[C@@H](CC(C)C)C(=O)N[C@@H](CCCN=C(N)N)C(=O)N[C@@H](CC(N)=O)C(=O)N[C@@H](CC(C)C)C(=O)O)[C@@H](C)CC)C(C)C)[C@@H](C)CC [IGKLFKRIVQRIKKFLRNL] | – |
| – | – | – | – | – | – | 4.8 (≈ 9 µg/mL) | 11.5 µM and 30 µM | > 30 | CC(C)C[C@H](NC(=O)[C@H](CCCN=C(N)N)NC(=O)[C@H](CCCN=C(N)N)NC(=O)[C@H](C)NC(=O)[C@H](Cc1c[nH]c2ccccc12)NC(=O)CNC(=O)[C@H](CCCN=C(N)N)NC(=O)[C@@H](N)CCCN=C(N)N)C(=O)N[C@@H](Cc1ccccc1)C(=O)N[C@@H](C)C(=O)N[C@@H](C)C(=O)N[C@@H](Cc1ccccc1)C(=O)NCC(=O)N[C@@H](CCCN=C(N)N)C(=O)N[C@@H](CCCN=C(N)N)C(N)=O [RRGWARRLFAAFGRR] | MIC [8]: 30 µM (≈ 56.3 µg/mL); MIC (Klebsiella pneumoniae): 1.8 µM (≈ 3.38 µg/mL); MIC [9]: 10.6 µM and 30 µM |
| 0.5 (≈ 0.982 µg/mL) | 2 (≈ 3.93 µg/mL) | 4 (≈ 7.85 µg/mL) | 2 (≈ 3.93 µg/mL) | 1 (≈ 1.96 µg/mL) | 0.5 (≈ 0.982 µg/mL) | – | – | – | CC(C)C[C@H](NC(=O)[C@H](Cc1ccccc1)NC(=O)[C@H](CCCCN)NC(=O)[C@H](Cc1c[nH]c2ccccc12)NC(=O)[C@H](Cc1c[nH]c2ccccc12)NC(=O)[C@H](Cc1c[nH]c2ccccc12)NC(=O)[C@H](CCCCN)NC(=O)[C@H](Cc1ccccc1)NC(=O)[C@H](CCCN=C(N)N)NC(=O)[C@H](CCCN=C(N)N)NC(=O)[C@@H](N)C(C)C)C(=O)N[C@@H](CCCN=C(N)N)C(=O)N[C@@H](CCCN=C(N)N)C(N)=O [VRRFKWWWKFLRR] | – |
| – | – | – | – | – | – | ≥ 64 | 64 µM (≈ 118 µg/mL) | > 64 | CC[C@H](C)[C@H](N)C(=O)N[C@@H](Cc1cnc[nH]1)C(=O)N[C@@H](CCCCN)C(=O)N[C@@H](CC(C)C)C(=O)N[C@H](C(=O)N[C@@H](CCCCN)C(=O)N[C@@H](CC(C)C)C(=O)N[C@@H](Cc1c[nH]c2ccccc12)C(=O)N[C@@H](CC(C)C)C(=O)N[C@@H](CC(N)=O)C(=O)N[C@@H](CC(C)C)C(=O)NCC(=O)N[C@@H](CCCCN)C(=O)N[C@@H](CCCCN)C(=O)N[C@@H](Cc1ccccc1)C(=O)O)C(C)C [IHKLVKLWLNLGKKF] | MIC [11]: 64 µM (≈ 118 µg/mL); MIC [12]: > 64 µM |
| 2 (≈ 5.17 µg/mL) | 2 (≈ 5.17 µg/mL) | 4 (≈ 10.3 µg/mL) | 1 (≈ 2.59 µg/mL) | 2 (≈ 5.17 µg/mL) | 1 (≈ 2.59 µg/mL) | – | – | – | CC[C@H](C)[C@H](NC(=O)[C@H](C)NC(=O)[C@H](CCCN=C(N)N)NC(=O)[C@H](Cc1ccccc1)NC(=O)[C@@H](NC(=O)[C@H](Cc1cnc[nH]1)NC(=O)[C@H](Cc1cnc[nH]1)NC(=O)[C@H](Cc1ccccc1)NC(=O)[C@@H](N)Cc1ccccc1)[C@@H](C)CC)C(=O)N[C@H](C(=O)N[C@@H](Cc1cnc[nH]1)C(=O)N[C@H](C(=O)NCC(=O)N[C@@H](CCCCN)C(=O)N[C@H](C(=O)N[C@H](C(=O)N[C@@H](Cc1cnc[nH]1)C(=O)N[C@@H](CCCN=C(N)N)C(=O)N[C@@H](CC(C)C)C(=O)N[C@H](C(=O)N[C@H](C(=O)NCC(=O)O)[C@@H](C)O)C(C)C)[C@@H](C)CC)[C@@H](C)O)C(C)C)C(C)C [FFHHIFRAIVHVGKTIHRLVTG] | – |
| – | – | – | – | – | – | – | – | – | CC[C@H](C)[C@H](NC(=O)[C@H](CCCN=C(N)N)NC(=O)[C@@H](NC(=O)[C@@H]1CCCN1C(=O)[C@H](CCCN=C(N)N)NC(=O)[C@@H](NC(=O)[C@@H]1CCCN1C(=O)[C@H](CCCN=C(N)N)NC(=O)[C@H](CC(C)C)NC(=O)CNC(=O)[C@H](Cc1cnc[nH]1)NC(=O)[C@@H]1CCCN1C(=O)CNC(=O)[C@H](CC(C)C)NC(=O)[C@H](CC(N)=O)NC(=O)[C@H](Cc1c[nH]c2ccccc12)NC(=O)[C@H](C)NC(=O)[C@@H](NC(=O)[C@H](C)N)[C@@H](C)O)[C@@H](C)CC)[C@@H](C)CC)C(=O)N[C@@H](CCCN=C(N)N)C(=O)N1CCC[C@H]1C(=O)N[C@@H](CC(C)C)C(=O)N[C@@H](CS)C(=O)NCC(=O)N[C@@H](CCCCN)C(=O)N[C@@H](CC(=O)O)C(=O)N[C@@H](CCCCN)C(=O)N[C@@H](CO)C(=O)O [ATAWNLGPHGLRPIRPIRIRPLCGKDKS] | MIC [13]: ≥ 100 µM |
| – | – | – | – | – | – | 1.8 (≈ 2.94 µg/mL) | 6.6 µM and 15.5 µM | > 30 | CC(C)C[C@H](NC(=O)[C@H](C)NC(=O)[C@H](CCCN=C(N)N)NC(=O)[C@H](C)NC(=O)[C@H](Cc1c[nH]c2ccccc12)NC(=O)CNC(=O)[C@H](CCCN=C(N)N)NC(=O)[C@@H](N)CCCN=C(N)N)C(=O)N[C@@H](C)C(=O)N[C@@H](Cc1ccccc1)C(=O)N[C@@H](C)C(=O)N[C@@H](Cc1ccccc1)C(=O)NCC(=O)N[C@@H](CCCN=C(N)N)C(N)=O [RRGWARALAFAFGR] | MIC [8]: 14.8 µM and 30 µM; MIC (Klebsiella pneumoniae): 1.9 µM (≈ 3.1 µg/mL) |
| 2.54 (≈ 5 µg/mL) | 5.08 (≈ 10 µg/mL) | 5.08 (≈ 10 µg/mL) | 5.08 (≈ 10 µg/mL) | 2.54 (≈ 5 µg/mL) | 5.08 (≈ 10 µg/mL) | – | – | – | CC[C@H](C)[C@H](N)C(=O)N[C@@H](CC(C)C)C(=O)N1CCC[C@H]1C(=O)N[C@@H](Cc1c[nH]c2ccccc12)C(=O)N[C@@H](CCCCN)C(=O)N[C@@H](Cc1c[nH]c2ccccc12)C(=O)N[C@@H](CCCCN)C(=O)N[C@@H](Cc1c[nH]c2ccccc12)C(=O)N[C@@H](Cc1c[nH]c2ccccc12)C(=O)N[C@@H](CCCCN)C(=O)N[C@@H](Cc1c[nH]c2ccccc12)C(=O)N[C@@H](CCCN=C(N)N)C(=O)N[C@@H](CCCN=C(N)N)C(N)=O [ILPWKWKWWKWRR] | – |
| 7.97 (≈ 12.5 µg/mL) | 7.97 (≈ 12.5 µg/mL) | 3.99 (≈ 6.25 µg/mL) | 2 (≈ 3.13 µg/mL) | 7.97 (≈ 12.5 µg/mL) | 3.99 (≈ 6.25 µg/mL) | – | – | – | CC[C@H](C)[C@H](NC(=O)[C@H](CCCCN)NC(=O)[C@H](CC(C)C)NC(=O)[C@H](CC(C)C)NC(=O)[C@@H](N)CCCCN)C(=O)N[C@@H](Cc1c[nH]c2ccccc12)C(=O)N[C@@H](Cc1c[nH]c2ccccc12)C(=O)N[C@H](C(=O)N[C@@H](CCCCN)C(=O)N[C@H](C(=O)N[C@@H](CC(C)C)C(=O)N[C@@H](CCCCN)C(N)=O)C(C)C)[C@@H](C)CC [KLLKIWWIKVLK] | – |
| – | – | – | – | – | – | – | 2.48 µM (≈ 4 µg/mL) | 9.92 (≈ 16 µg/mL) | CC(C)C[C@H](NC(=O)CNC(=O)[C@H](C)NC(=O)[C@@H](NC(=O)[C@H](CCCN=C(N)N)NC(=O)[C@H](CCCN=C(N)N)NC(=O)[C@H](CC(C)C)NC(=O)[C@@H](N)CC(C)C)C(C)C)C(=O)N[C@@H](CC(C)C)C(=O)N[C@@H](CCCCN)C(=O)N[C@@H](CCC(N)=O)C(=O)N[C@@H](Cc1ccccc1)C(=O)N[C@@H](C)C(=O)N[C@@H](CCCCN)C(=O)O [LLRRVAGLLKQFAK] | MIC [13]: 9.92 µM (≈ 16 µg/mL); MIC [14]: 4.96 µM (≈ 8 µg/mL) |
| – | – | – | – | – | – | 25 (≈ 47.4 µg/mL) | > 25 µM | > 25 | CC[C@H](C)[C@H](NC(=O)[C@H](CC(C)C)NC(=O)[C@H](CCCCN)NC(=O)[C@@H](NC(=O)[C@H](CC(C)C)NC(=O)[C@H](CCCN=C(N)N)NC(=O)[C@H](CCCN=C(N)N)NC(=O)[C@@H](NC(=O)[C@H](C)NC(=O)[C@H](CCCCN)NC(=O)[C@H](C)NC(=O)[C@H](CC(C)C)NC(=O)[C@@H](NC(=O)[C@@H](N)CCCN=C(N)N)[C@@H](C)CC)[C@@H](C)O)C(C)C)C(=O)N[C@H](C(=O)N[C@@H](CO)C(=O)NCC(=O)O)C(C)C [RILAKATRRLVKLIVSG] | MIC [11]: > 25 µM; MIC [12]: > 25 µM |
